From article PMC5697638, “Identification of a Potent Phosphoinositide 3‐Kinase Pan Inhibitor Displaying a Strategic Carboxylic Acid Group and Development of Its Prodrugs” (Chemmedchem, 2017)

Experiments:
[1] = target: T1, hPI3Kγ (PIK3CG) (Homo sapiens, UniProt P48736); test: lipid kinase assay (ADP-Glo), PI3Kγ; format: biochemical
T1 construct: purchased ProQinase, Germany 1163‐0000‐1
Procedure: In vitro selection, lipid kinase assay: To determine the inhibitory activity of the new molecular entities on PI3K enzyme, a lipid kinase assay was performed: recombinant proteins (30 ng), human PI3Kα (PIK3CA/PIK3R1, #1161‐1165‐1 ProQinase–Germany), hPI3Kβ (PIK3CB wt/PIK3R1, #1168‐1165‐1 ProQinase, Germany), hPI3Kγ (PIK3CG, #1163‐0000‐1 ProQinase, Germany), hPI3Kδ (PIK3CD/PIK3R1, #1162–1165‐1 ProQinase, Germany), hPI3K‐C2α (PIK3C2A, #14‐906 Merck Millipore_Merck KGaA, Germany), hPI3K‐C2β (PIK3C2B, #14‐907 Merck Millipore_Merck KGaA, Germany), hPI3K‐c2γ (PIK3C2G, #1207‐0000‐1 ProQinase, Germany), and hVps34 (PIK3C3, #1160‐0000‐1 ProQinase, Germany), were incubated in kinase buffer {12.5 μL; 20 mM Tris‐HCl pH 7.5, 10 mM MgCl2, 10 μM ATP, 0.05 mg mL^−1 BSA, 0.5 mM EDTA, 5 mM HEPES pH 7.5, for PI3Kα,PI3Kβ, PI3Kγ, PI3Kδ, PI3KC‐2α, and PI3KC‐2γ; 15 mM MnCl2, 5 mM EGTA, 100 μM ATP, 50 mM HEPES pH 7.5, 100 mM NaCl, and 0.03 % CHAPS for PI3K‐C2β and VPS34 {BSA=bovine serum albumin; EDTA=ethylenediaminetetraacetic acid; HEPES=4‐(2‐hydroxyethyl)‐1‐piperazineethanesulfonic acid; EGTA=ethylene glycol‐bis(2‐aminoethylether)‐N,N,N′,N′‐tetraacetic acid; CHAPS=3‐[(3‐cholamidopropyl)dimethylammonio]‐1‐propanesulfonate}. In the reaction, the ATP concentration used for different PI3Ks was defined on the basis of the Michaelis–Menten kinetics of each enzyme, provided by the supplier. Reaction was performed in presence of 0.5 mg mL^−1 lipid micelles (1:1 phosphatidylinositol/phosphatidylserine) and in the absence (DMSO alone) or presence of increasing concentrations of each compound (from 0.1 nM to 30 μM). The mixture was kept at room temperature (RT) for 30 min for PI3Kα, PI3Kβ, PI3Kγ, PI3Kδ, PI3KC‐2α, and PI3KC‐2γ and for 1 h for PI3K‐C2β and PI3K‐C3. The amount of ADP produced in the reaction was measured by using the ADP‐Glo Kinase Assay kit from Promega (#V9102) and a luminescence reader (Glomax multi detection system, Promega, model number 9301‐010).
The residual PI3K lipid kinase activity in the presence of each molecule at different concentrations was related to the control, intended as the recombinant protein in the presence of DMSO alone and was expressed as a percentage. To derive the IC50 value, all data (% of lipid kinase activity) were plotted on a dose–response curve (Graph Pad software), and the IC50 was calculated by using nonlinear regression fit (equation [log agonist] versus response).

[2] = metabolic stability in rat liver microsomes (RLM); format: in vitro ADME
Procedure: Twelve esters were prepared (see the Experimental Section for their synthesis and the Supporting Information for chromatographic methods) and evaluated in terms of metabolic stability. For this task, a combined approach based on microsomal and plasmatic stability assays was exploited considering the relevance of the plasmatic and hepatic tissues in esterase activity. Microsomal stability of the selected esters was evaluated by monitoring the disappearance of the substrate incubated in rat liver microsomes (RLM) at 50 μM concentration, in the presence of NADPH. In Table 4, the percentage of the remaining substrate, after incubation (t=60 min), with respect to the initial amount is reported. Overall, the compounds underwent a relevant metabolic transformation, and the substrate depletion ranged from 0 (for 76) to 100 % (for 70). This is mainly due to hydrolysis of the ester function, whereas the metabolites arising from the oxidation catalyzed by the NADPH‐dependent monooxygenase system were negligible from a quantitative point of view. Indeed, the main metabolite formed during the incubation of the esters was corresponding carboxyl derivative 37. […] Moreover, whereas CH2‐pyridin‐4‐yl ester 70 was completely metabolized, corresponding benzyl derivative 65 and piperonyl derivative 72 were more hydrolytically stable, and their residual substrates were 53 and 83 %, respectively. The hydrolytic stability of the selected esters was also evaluated by monitoring the depletion of the substrate incubated at a 50 μM concentration in mouse plasma over a period of 30 min. As expected, the plasmatic metabolic fate of the esters was characterized by the formation of 37 as the only metabolite (see Figure S4). The rate constant k [min^−1], derived for the substrate peak area versus time curve (single‐exponential decay equation—GraphPad Prism software, Inc., San Diego, CA (USA); see Figure S5) was used to calculate the in vitro half‐life t 1/2 [min], and the values are reported in Table 4.
Metabolic stability of PI3K inhibitors in RLM fraction
The standard incubation mixture (500 µL final volume), in 1.5 mL Eppendorf tubes, was carried out in a 50 mM TRIS-HCl buffer (pH 7.4) containing 3.3 mM MgCl2, 1.3 mM NADPNa2, 3.3 mM glucose 6-phosphate, 0.4 Units/mL glucose 6-phosphate dehydrogenase (NADPH regenerating system), acetonitrile as cosolvent (1% of final volume) and 50 µM of substrate. After pre-equilibration of the mixture, an appropriate volume of rat microsomal suspension was added to give a final protein concentration of 1 mg/mL. The mixture was shaken for 1 hour at 37°C and the reaction was quenched by diluting the samples with 500 µL of ice-cold acetonitrile. The samples were then centrifuged at 13,000 rpm for 10 min, and the supernatant was directly injected onto the HPLC column for analysis. Control incubations were performed without microsomes. […]
A Shimadzu HPLC system (Shimadzu, Kyoto, Japan), consisting of two LC-10AD Vp module pumps, an SLC-10A Vp system controller, an SIL-10AD Vp autosampler, and a DGU-14-A on-line degasser was used for the analysis. All the chromatographic separations were performed on a Phenomenex Luna C18 5µm (150 x 4.6 mm i.d.) (Phenomenex srl, Castel Bolognese, Italy) as a stationary phase protected by a Luna C18 SecurityGuard (Phenomenex srl). The SPD-M10Avp photodiode array detector was used to detect the analyte at 254 nm. LC Solution 1.24 software was used to process the chromatograms. Aliquots (20 µL) of supernatants obtained from incubations were injected onto the HPLC system and eluted with a mobile phase (flow rate: 1 mL/min) consisting of solvent A- 0.5% aqueous formic acid solution and solvent B- acetonitrile/methanol 80:20.
The eluants were filtered through a 0.45-µm pore size polyvinylidene difluoride membrane […]
The following gradients programs were used: […]

T1 sequence (P48736 whole entry): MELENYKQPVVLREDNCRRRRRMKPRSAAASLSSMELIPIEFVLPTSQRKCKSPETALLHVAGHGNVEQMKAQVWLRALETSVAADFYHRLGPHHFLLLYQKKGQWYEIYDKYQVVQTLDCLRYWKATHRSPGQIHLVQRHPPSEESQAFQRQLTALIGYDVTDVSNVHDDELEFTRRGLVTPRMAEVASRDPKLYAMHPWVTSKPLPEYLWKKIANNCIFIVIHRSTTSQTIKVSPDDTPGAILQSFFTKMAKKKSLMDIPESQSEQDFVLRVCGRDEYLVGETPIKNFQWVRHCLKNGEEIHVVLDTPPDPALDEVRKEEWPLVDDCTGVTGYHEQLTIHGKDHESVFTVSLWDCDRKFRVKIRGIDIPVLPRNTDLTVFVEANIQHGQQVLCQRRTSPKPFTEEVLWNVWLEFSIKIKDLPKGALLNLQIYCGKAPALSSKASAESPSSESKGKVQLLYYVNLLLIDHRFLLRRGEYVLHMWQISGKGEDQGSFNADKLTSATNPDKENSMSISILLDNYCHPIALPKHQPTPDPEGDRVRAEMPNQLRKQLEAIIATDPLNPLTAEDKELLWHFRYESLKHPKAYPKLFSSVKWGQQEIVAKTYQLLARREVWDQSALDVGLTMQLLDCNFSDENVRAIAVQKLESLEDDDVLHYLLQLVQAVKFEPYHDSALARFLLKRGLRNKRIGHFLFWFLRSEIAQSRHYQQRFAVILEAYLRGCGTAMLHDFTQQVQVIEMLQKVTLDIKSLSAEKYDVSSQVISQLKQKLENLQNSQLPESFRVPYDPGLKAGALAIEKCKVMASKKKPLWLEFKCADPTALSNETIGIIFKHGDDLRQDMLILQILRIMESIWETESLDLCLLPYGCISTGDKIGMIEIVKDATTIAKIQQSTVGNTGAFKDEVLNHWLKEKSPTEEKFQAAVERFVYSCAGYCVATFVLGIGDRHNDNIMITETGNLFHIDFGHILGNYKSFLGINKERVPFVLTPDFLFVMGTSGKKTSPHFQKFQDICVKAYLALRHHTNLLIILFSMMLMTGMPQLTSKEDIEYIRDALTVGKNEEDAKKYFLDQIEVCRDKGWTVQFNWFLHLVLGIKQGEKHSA

Row | Residual microsomal substrate (t=60 min) ([2]; RLM, 50 μM substrate, with NADPH, LC–UV) [%] | % residual substrate, NADPH (without RLM) ([2]; control incubation without microsomes, 50 μM, 60 min) [%] | SMILES | IC50 ([1]; Table 2, mean of at least three determinations, 95 % confidence intervals) [nM] | inhibition at 1 µM ([1]; determined at 1 μM, at least triplicate, read-out: Inhibitory activity, PI3K isoform γ) [%]
1 | – | – | O=C(O)c1cccc(Cn2cc(-c3cccc4c(=O)cc(N5CCOCC5)[nH]c34)nn2)c1 [Compound 37, 3‐{[4‐(2‐Morpholino‐4‐oxo‐1,4‐dihydroquinolin‐8‐yl)‐1H‐1,2,3‐triazol‐1‐yl]methyl}benzoic acid] | 186 ± 43 | > 50
2 | 20 | 100 | COC(=O)c1cccc(Cn2cc(-c3cccc4c(=O)cc(N5CCOCC5)[nH]c34)nn2)c1 [Compound 64, Methyl 3‐{[4‐(2‐morpholino‐4‐oxo‐1,4‐dihydroquinolin‐8‐yl)‐1H‐1,2,3‐triazol‐1‐yl]methyl}benzoate] | – | –
